Results: ChEMBL document CHEMBL3407497, “Discovery of small molecule inhibitors to Krüppel-like factor 10 (KLF10): implications for modulation of T regulatory cell differentiation” (J Med Chem, 2015)
Activity calls are given as the source filed them. The rule behind the calls is not given here.

Columns and labels:
[1] = molecular target: T1, Krueppel-like factor 10 (Homo sapiens) (UniProt Q13118); assay: Inhibition of KLF10 (unknown origin) binding to DNA at 40 uM incubated for 4 hrs followed by biotin-labeled probes addition and incubated for another 1 hr by electromobility gel shift assay
T1 sequence (whole entry): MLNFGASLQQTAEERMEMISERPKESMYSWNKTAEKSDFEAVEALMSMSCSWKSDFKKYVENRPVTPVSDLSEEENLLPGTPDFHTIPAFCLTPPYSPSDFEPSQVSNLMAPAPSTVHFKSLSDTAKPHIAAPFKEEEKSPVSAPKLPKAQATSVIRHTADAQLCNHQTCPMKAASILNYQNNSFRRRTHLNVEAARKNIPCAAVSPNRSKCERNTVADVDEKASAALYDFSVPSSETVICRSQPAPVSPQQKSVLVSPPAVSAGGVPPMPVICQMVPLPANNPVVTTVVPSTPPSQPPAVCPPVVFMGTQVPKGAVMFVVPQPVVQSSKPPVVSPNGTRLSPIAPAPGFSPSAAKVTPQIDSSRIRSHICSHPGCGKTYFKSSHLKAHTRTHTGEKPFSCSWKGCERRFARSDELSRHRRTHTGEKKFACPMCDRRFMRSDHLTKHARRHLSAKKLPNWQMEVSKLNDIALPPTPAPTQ

[2] = molecular target: T1, Krueppel-like factor 10 (Homo sapiens); assay: Inhibition of KLF10 (unknown origin) binding to DNA at 8 uM incubated for 4 hrs followed by biotin-labeled probes addition and incubated for another 1 hr by electromobility gel shift assay
[3] = molecular target: Krueppel-like factor 1 (Homo sapiens) (UniProt Q13351); assay: Inhibition of KLF1 (unknown origin) binding to DNA at 40 uM incubated for 4 hrs followed by biotin-labeled probes addition and incubated for another 1 hr by electromobility gel shift assay
Krueppel-like factor 1 (Homo sapiens), sequence (Q13351 whole entry): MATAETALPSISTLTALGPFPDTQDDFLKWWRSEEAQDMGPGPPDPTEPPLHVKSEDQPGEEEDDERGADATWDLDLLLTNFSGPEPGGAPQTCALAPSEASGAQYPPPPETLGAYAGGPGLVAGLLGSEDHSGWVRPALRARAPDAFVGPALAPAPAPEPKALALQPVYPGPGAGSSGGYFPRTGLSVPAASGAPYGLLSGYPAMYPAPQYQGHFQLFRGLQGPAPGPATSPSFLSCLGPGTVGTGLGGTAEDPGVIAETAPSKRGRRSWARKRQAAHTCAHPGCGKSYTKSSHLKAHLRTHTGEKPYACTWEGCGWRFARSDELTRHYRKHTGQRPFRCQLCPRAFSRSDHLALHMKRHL

[4] = molecular target: Krueppel-like factor 1 (Homo sapiens) (UniProt Q13351); assay: Inhibition of KLF1 (unknown origin) binding to DNA at 8 uM incubated for 4 hrs followed by biotin-labeled probes addition and incubated for another 1 hr by electromobility gel shift assay
[5] = tested on: T-cell; assay: Inhibition of Foxp3 gene expression in mouse T regulatory cells at 50 uM measured during TGFbeta1-induced conversion of CD4(+) and CD25(-) cells to CD4(+) and CD25(+) cells incubated for 3 days by real-time quantitative PCR method; format: functional; conditions: 72 h
[6] = molecular target: T2, Krueppel-like factor 10 (Homo sapiens, UniProt Q13118); assay: Inhibition of human KLF10 expressed in human HeLa cells assessed as reduction in transcriptional activity after 24 hrs by CACCC-responsive promoter driven TK-luciferase reporter gene assay; format: cell-based
T2 sequence (Q13118 whole entry): T1 sequence (whole entry)

[7] = tested on: T-cell; assay: Inhibition of mouse T regulatory cell differentiation assessed as inhibition of TGFbeta1-induced conversion of CD4(+) and CD25(-) cells to CD4(+) and CD25(+) cells incubated for 3 days by flow cytometry; format: functional
[8] = Inhibition of zinc finger protein C7 (unknown origin) assessed as reduction in transcriptional activity by luciferase reporter gene assay relative to untreated control; design: species or system Homo sapiens
[9] = tested on: HEK293; assay: Inhibition of GLI (unknown origin) expressed in HEK293 cells assessed as reduction in GLI-mediated transcription at 30 uM; format: cell-based; conditions: Homo sapiens

Row | SMILES | inhibition [1] [%] | inhibition [2] [%] | inhibition [3] | inhibition [4] | inhibition at 50 µM [5] [%] | inhibition (INH) [7] [%] | inhibition [9] | also measured
1 | Cc1ccc(OCC(=O)c2cc(C)c(O)cc2O)cc1 | 25 | 11 | inactive | inactive | 84.7 |  |  | 
2 | COc1ccc(C(=O)COC(=O)c2cc(C)ccc2O)cc1 | 45 | 12 | inactive | inactive | 82.5 | 59.1 |  | IC50 [6]: 40 µM
3 | c1ccc2[nH]c(-c3ccnc4ccccc34)nc2c1 |  |  |  |  |  |  |  | EC50 [8]: 35 µM
4 | c1cc(-c2sc(-c3ccncc3)c(-c3ccncc3)c2-c2ccncc2)ccn1 |  |  |  |  |  |  | Active | 
5 | CN(C)c1ccccc1CN1CCCN(Cc2ccccc2N(C)C)C1c1ccncc1 |  |  |  |  |  |  | Active | 
6 | Cc1sc2nc(SCC(=O)c3ccc(O)c(O)c3)[nH]c(=O)c2c1C |  | 25 |  |  | 90.8 | 29.2 |  | 
